Test system: All receptor
Experiment: Inhibition of pressor response to intravenous angiotensin II in anaesthetised rats (AII receptor blocking activity)
Type: in vivo
Conditions: i.v.; dose inhibiting by fifty percent the pressor response to 50 ng/kg i.v. angiotensin II; angiotensin II injected two minutes after test compound; male Wister-Imamichi rats
Procedure: Evaluation of All receptor blocking activity by Inhibition of pressor response to angiotensin II
The biological activity of each compound was assessed by determining the dose required to inhibit the pressor response to intravenous angiotensin II by fifty percent (ID50) in rats. Male Wister-Imamichi rats, each weighing 300 to 400 g, were anaesthesized by intraperitoneal injection of 100 mg/Kg of sodium thiobutabarbital [Inactin (trade name)] and two cannulae were inserted: one into the femoral artery for measuring blood pressure and the other into the femoral vein for injecting drugs. Fifty ng/kg of angiotension II were intravenously administered at intervals of about 10 minutes, and the elevation of blood pressure (normally about 50 mmHg) was observed. After constant pressor responses to angiotensin II were obtained, a test compound was intravenously administered. Two minutes later, angiotension II was again injected, and the inhibitory effect of the test compound was estimated. The percent inhibitions of the pressor response to angiotensin II by progressive increase of the test compound was used to calculate the value of ID50. Angiotensin II was used in this test dissolved in 0.5 % bovine serum albumin (BSA) and the test compounds were dissolved in 100% dimethyl sulphoxide (DMSO).

Compound | ID50 [mg/kg]
CCCOCc1nc(C(C)(C)O)c(C(=O)O)n1Cc1ccc(-c2ccccc2-c2nnn[nH]2)cc1 [Example 10, 4-(1-Hydroxy-1-methylethyl)-2-propoxymethyl-1-{4-[2-(tetrazol-5-yl)phenyl]phenyl}methylimidazole-5-carboxylic acid] | 0.016
COCc1nc(C(C)(C)O)c(C(=O)O)n1Cc1ccc(-c2ccccc2-c2nnn[nH]2)cc1 [Example 2, 4-(1-Hydroxy-1-methylethyl)-2-methoxymethyl-1-{4-[2-(tetrazol-5-yl)phenyl]phenyl}methylimidazole-5-carboxylic acid] | 0.0066
CSc1nc(C(C)(C)O)c(C(=O)O)n1Cc1ccc(-c2ccccc2-c2nnn[nH]2)cc1 [Example 25, 4-(1-Hydroxy-1-methylethyl)-2-methylthio-1-{4-[2-(tetrazol-5-yl)phenyl]phenyl}methyl-imidazole-5-carboxylic acid] | 0.026
COC(C)c1nc(C(C)(C)O)c(C(=O)O)n1Cc1ccc(-c2ccccc2-c2nnn[nH]2)cc1 (stereo not shown) [Example 14, 4-(1-Hydroxy-1-methylethyl)-2-(1-methoxyethyl)-1-{4-[2-(tetrazol-5-yl)phenyl]phenyl}methyl-imidazole-5-carboxylic acid] | 0.074
CSCc1nc(C(C)(C)O)c(C(=O)O)n1Cc1ccc(-c2ccccc2-c2nnn[nH]2)cc1 [Example 22, 4-(1-Hydroxy-1-methylethyl)-2-methylthiomethyl-1-{4-[2-(tetrazol-5-yl)phenyl]phenyl}methyl-imidazole-5-carboxylic acid] | 0.025
CCOCc1nc(C(C)(C)O)c(C(=O)O)n1Cc1ccc(-c2ccccc2-c2nnn[nH]2)cc1 [Example 6, 2-Ethoxymethyl-4-(1-hydroxy-1-methylethyl)-1-{4-[2-(tetrazol-5-yl)phenyl]phenyl}methylimidazole-5-carboxylic acid] | 0.0059
CCSc1nc(C(C)(C)O)c(C(=O)O)n1Cc1ccc(-c2ccccc2-c2nnn[nH]2)cc1 [Example 27, 2-Ethylthio-4-(1-hydroxy-1-methylethyl)-1-{4-[2-(tetrazol-5-yl)phenyl]phenyl}methyl-imidazole-5-carboxylic acid] | 0.019
